In patent publication US20140288071A1, “INHIBITORS OF NOTUM […] AND METHODS OF THEIR USE” (priority 2011, published 2014):

How the values were obtained:
[1] = biological target: T1, human notum pectinacetyltransferase (Homo sapiens, UniProt Q6P988); experiment: Reporter assay (CellSensor LEF/TCF-bla FreeStyle 293F cells, Wnt3a and notum conditioned media); type: cell-based
T1 construct: made in house; conditioned medium used
T1 sequence (Q6P988 20-496): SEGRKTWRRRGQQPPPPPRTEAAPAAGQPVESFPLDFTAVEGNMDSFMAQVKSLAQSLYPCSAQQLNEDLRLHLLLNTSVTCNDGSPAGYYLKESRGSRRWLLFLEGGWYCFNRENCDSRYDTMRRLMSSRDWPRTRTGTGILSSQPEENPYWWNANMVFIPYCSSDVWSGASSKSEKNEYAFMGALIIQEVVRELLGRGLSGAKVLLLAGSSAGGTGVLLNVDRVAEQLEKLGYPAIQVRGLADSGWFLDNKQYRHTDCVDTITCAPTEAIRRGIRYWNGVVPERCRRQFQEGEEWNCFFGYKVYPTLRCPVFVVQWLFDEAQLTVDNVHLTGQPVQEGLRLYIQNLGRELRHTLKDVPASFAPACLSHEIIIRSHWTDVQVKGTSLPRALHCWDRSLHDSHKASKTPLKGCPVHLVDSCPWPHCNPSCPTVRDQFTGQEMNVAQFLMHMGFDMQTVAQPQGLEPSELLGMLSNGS
Procedure: Plasmid containing human notum pectinacetyltransferase in pcDNA3.1(+) vector was transfected into HEK293 cells and clones were selecting by growing in presence of 400 ug/mL of G418. […] L cells overexpressing and secreting Wnt3a into the conditioned media were purchased from ATCC.
The assay protocol was as follows. […] The cell growth medium consisted of DMEM with 10% Dialyzed FBS, 5 μg/ml Blasticidin (Invitrogen, R210-01), 0.1 mM NEAA, 25 mM HEPES and 1×GPS. Cells were then trypsinized by first rinsing with PBS, followed by addition of 5 mL of trypsin and incubation of plates at room temperature for two minutes. A total of 10 mL of assay media (Opti-MEM, plus 0.5% dialyzed FBS, 0.1 mM NEAA, 1 mM sodium pyruvate, 10 mM HEPES, 1×GPS) was then added per 15 cm plate. Cells were counted and suspended at 0.75 million cells per mL. […] After incubation of cells at 37° C. for 3 hours, 10 μL of 30 mM LiCl in assay medium was added per well, followed by incubation at 37° C. for another 3 hours. […] Ten μL of the Wnt3a/notum pentinacetyltransferase mixture was then transferred from Greiner plates to each well of the 384-well plates containing the CellSensor cells. After incubation of cells overnight at 37° C., reactions were developed by addition of […] of 1×CCF4 (Invitrogen, Catalogue number K1085) to each well, covering the entire 384-well plate, and gentle rocking in the dark at room temperature for 3 hours.

[2] = biological target: T1, human notum pectinacetyltransferase; experiment: Binding assay (OPTS esterase substrate, fluorimetric); type: biochemical; settings: OPTS substrate 5 μM
Procedure: Plasmid containing human notum pectinacetyltransferase in pcDNA3.1(+) vector was transfected into HEK293 cells and clones were selecting by growing in presence of 400 ug/mL of G418. Condition media from these cells was used for the assay.

[3] = test system: F1 male hybrid (129×C57) mice; experiment: Midshaft femur cortical thickness by microCT in treated mice; type: in vivo; settings: 25 days; for increase in cortical bone thickness (midshaft femur) compared to control: starting at 8.7 weeks of age
Procedure: The compound was administered in the animals' diet. Four groups of mice were used: control (N=12); 25 mg/kg compound (N=9); 83 mg/kg compound (N=9); and an additional group wherein Li2CO3 was administered in the diet (0.1%) (N=9).
Midshaft femur cortical thickness was measured using a Scanco μCT40. […] For the Li2CO3 group, a decrease in cortical bone thickness of 2% (p=0.90) was observed. […]
Midshaft femur cortical thickness was measured by microCT (Scanco μCT40). […]

| Molecule | EC50 [1] [nM] | IC50 [2] [nM] | also measured |
| --- | --- | --- | --- |
| Cc1cc2c(SCC(=O)O)ncnc2s1 [2-((6-methylthieno[2,3-d]pyrimidin-4-yl)thio)acetic acid] | < 10000 | < 250 |  |
| O=C(O)CSc1ncnc2c(C3CC3)c(Cl)sc12 [2-((6-chloro-7-cyclopropylthieno[3,2-d]pyrimidin-4-yl)thio)acetic acid] |  |  | increase in cortical bone thickness (midshaft femur) compared to control ([3]; 3 mg/kg daily oral gavage, p=0.003): 7%; increase in cortical bone thickness (midshaft femur) compared to control ([3]; 10 mg/kg daily oral gavage, p<0.001): 10%; increase in cortical bone thickness (midshaft femur) compared to control ([3]; 30 mg/kg daily oral gavage, p<0.001): 13% |
| O=C([O-])[O-].[Li+].[Li+] [Li2CO3, reference compound] |  |  | decrease in cortical bone thickness (midshaft femur) compared to control ([3]; first study, 0.1% in diet, p=0.90): 2% |
| Cc1sc2ncnc(SCC(=O)N3Cc4ccccc4C3)c2c1C [2-((5,6-dimethylthieno[2,3-d]pyrimidin-4-yl)thio)-1-(isoindolin-2-yl)ethanone] | < 10000 | < 25 |  |
| CCNC(=O)CSc1ncnc2sc(C)c(Cl)c12 [2-((5-chloro-6-methylthieno[2,3-d]pyrimidin-4-yl)thio)-N-ethylacetamide] | < 1000 | < 25 |  |
| Cc1sc2ncnc(SCC(=O)O)c2c1C1CC1 [2-((5-cyclopropyl-6-methylthieno[2,3-d]pyrimidin-4-yl)thio)acetic acid] | < 5000 | < 25 |  |
| CCCCOC(=O)CSc1ncnc2sc(C)c(C)c12 [butyl 2-((5,6-dimethylthieno[2,3-d]pyrimidin-4-yl)thio)acetate] | < 1000 | < 25 |  |
| Cc1csc2c(SCC(=O)O)ncnc12 [2-((7-methylthieno[3,2-d]pyrimidin-4-yl)thio)acetic acid] | < 15000 | < 250 |  |
| O=C(O)CSc1ncnc2sc3c(c12)CCC3 [2-((6,7-dihydro-5H-cyclopenta[4,5]thieno[2,3-d]pyrimidin-4-yl)thio)acetic acid] | < 5000 | < 25 |  |
| Cc1sc2ncnc(SCC(=O)NC#N)c2c1C [N-cyano-2-((5,6-dimethylthieno[2,3-d]pyrimidin-4-yl)thio)acetamide] | < 1000 | < 25 |  |
| CCNC(=O)CSc1ncnc2c(C)c(Cl)sc12 [2-((6-chloro-7-methylthieno[3,2-d]pyrimidin-4-yl)thio)-N-ethylacetamide] | < 1000 | < 25 |  |
| COC(=O)CSc1ncnc2sc(C)c(C)c12 [methyl 2-((5,6-dimethylthieno[2,3-d]pyrimidin-4-yl)thio)acetate] | < 1000 | < 25 |  |
| Cc1sc2ncnc(SCC(N)=O)c2c1C [2-((5,6-dimethylthieno[2,3-d]pyrimidin-4-yl)thio)acetamide] | < 1000 | < 25 |  |
| Cc1cc(NC(=O)CSc2ncnc3sc(C)c(C)c23)no1 [2-((5,6-dimethylthieno[2,3-d]pyrimidin-4-yl)thio)-N-(5-methylisoxazol-3-yl)acetamide] | < 1000 | < 25 |  |
| CCc1sc2ncnc(SCC(=O)O)c2c1Cl [2-((5-chloro-6-ethylthieno[2,3-d]pyrimidin-4-yl)thio)acetic acid] | < 1000 | < 25 |  |
| Cc1sc2ncnc(SCC(=O)NOC3CCCCO3)c2c1C (stereo not shown) [2-((5,6-dimethylthieno[2,3-d]pyrimidin-4-yl)thio)-N-((tetrahydro-2H-pyran-2-yl)oxy)acetamide] | < 1000 | < 25 |  |
| Cc1sc2ncnc(SCC(=O)NCCN3CCOCC3)c2c1Cl [2-((5-chloro-6-methylthieno[2,3-d]pyrimidin-4-yl)thio)-N-(2-morpholinoethyl)acetamide] | < 1000 | < 25 |  |
| Cc1c(Cl)sc2c(SCC(=O)NCC#N)ncnc12 [2-((6-chloro-7-methylthieno[3,2-d]pyrimidin-4-yl)thio)-N-(cyanomethyl)acetamide] | < 1000 | < 25 |  |
| Cc1sc2ncnc(SCC(=O)NCCC#N)c2c1Cl [2-((5-chloro-6-methylthieno[2,3-d]pyrimidin-4-yl)thio)-N-(2-cyanoethyl)acetamide] | < 1000 | < 25 |  |
| Cc1sc2ncnc(SCC(=O)N(C)C)c2c1Cl [2-((5-chloro-6-methylthieno[2,3-d]pyrimidin-4-yl)thio)-N,N-dimethylacetamide] | < 1000 | < 25 |  |

More lines, main results first:

| EC50 [1] [nM] | IC50 [2] [nM] | Molecule | also measured |
| --- | --- | --- | --- |
| < 1000 | < 50 | Cc1sc2ncnc(SCC(=O)NCCc3cn[nH]c3)c2c1Cl [N-(2-(1H-pyrazol-4-yl)ethyl)-2-((5-chloro-6-methylthieno[2,3-d]pyrimidin-4-yl)thio)acetamide] |  |
| < 1000 | < 25 | CCCc1sc2ncnc(SCC(=O)O)c2c1Cl [2-((5-chloro-6-propylthieno[2,3-d]pyrimidin-4-yl)thio)acetic acid] |  |
| < 1000 | < 25 | Cc1c(Cl)sc2c(SCC(=O)NCCC#N)ncnc12 [2-((6-chloro-7-methylthieno[3,2-d]pyrimidin-4-yl)thio)-N-(2-cyanoethyl)acetamide] |  |
| < 1000 | < 25 | Cc1sc2c(SCC(=O)O)ncnc2c1C1CC1 [2-((7-cyclopropyl-6-methylthieno[3,2-d]pyrimidin-4-yl)thio)acetic acid] |  |
| < 1000 | < 25 | Cc1sc2ncnc(SCC(=O)NCc3ccco3)c2c1Cl [2-((5-chloro-6-methylthieno[2,3-d]pyrimidin-4-yl)thio)-N-(furan-2-ylmethyl)acetamide] |  |
| < 1000 | < 25 | Cc1sc2ncnc(SCC(=O)OC(C)C)c2c1Cl [isopropyl 2-((5-chloro-6-methylthieno[2,3-d]pyrimidin-4-yl)thio)acetate] |  |
| < 1000 | < 25 | 2-(7-cyclopropyl-6-(trifluoromethyl)thieno[3,2-d]pyrimidin-4-yl)thio)acetate |  |
| < 1000 | < 25 | COC(=O)CSc1ncnc2c(C)c(Cl)sc12 [methyl 2-((6-chloro-7-methylthieno[3,2-d]pyrimidin-4-yl)thio)acetate] |  |
| < 1000 | < 25 | COCCNC(=O)CSc1ncnc2c(C)c(Cl)sc12 [2-((6-chloro-7-methylthieno[3,2-d]pyrimidin-4-yl)thio)-N-(2-methoxyethyl)acetamide] |  |
| < 1000 | < 25 | CCc1sc2ncnc(SCC(=O)O)c2c1Br [2-((5-bromo-6-ethylthieno[2,3-d]pyrimidin-4-yl)thio)acetic acid] |  |
| < 1000 | < 25 | CNC(=O)CSc1ncnc2sc(C)c(C)c12 [2-((5,6-dimethylthieno[2,3-d]pyrimidin-4-yl)thio)-N-methylacetamide] |  |
| < 1000 | < 25 | CC(C)c1sc2ncnc(SCC(=O)O)c2c1Br [2-((5-bromo-6-isopropylthieno[2,3-d]pyrimidin-4-yl)thio)acetic acid] |  |
| < 1000 | < 25 | Cc1sc2ncnc(SCC(=O)O)c2c1Br [2-((5-bromo-6-methylthieno[2,3-d]pyrimidin-4-yl)thio)acetic acid] |  |
| < 1000 | < 25 | CON(C)C(=O)CSc1ncnc2sc(C)c(C)c12 [2-((5,6-dimethylthieno[2,3-d]pyrimidin-4-yl)thio)-N-methoxy-N-methylacetamide] |  |
| < 1000 | < 25 | Cc1sc2ncnc(SCC(=O)OC(C)C)c2c1C [isopropyl 2-((5,6-dimethylthieno[2,3-d]pyrimidin-4-yl)thio)acetate] |  |
